{
  "source": "patent US20240391928A1",
  "about": "“COMPOSITIONS FOR THE TREATMENT OF FOOD AND CHEMICAL ADDICTION AND METHODS OF MAKING AND USING SAME” (Duke University, priority 2021, published 2024)",
  "key": {"[1]": {"assay": "Pharmacokinetic analysis in C57BL/6 mice", "experimental": "Pharmacokinetic Analysis. Male C57BL/6 mice were used for pharmacokinetic studies and were purchased from Charles River Laboratories. DAT KO mice were backcrossed for >10 generations onto a C57BL/6J (Jackson Laboratory, Bar Harbor, ME) genetic background. Mice were bred and maintained on a standard 12:12 hour light:dark cycle, socially housed, and supplied with standard laboratory chow and water ad libitum, except during testing. […] Plasma, brain and liver samples were collected over 24 hours. […] The mean concentration from 3 animals at each time-point was used in the pharmacokinetic (PK) analysis. PK parameters were calculated with Phoenix WinNonlin Software (Ver. 8.0, Certara)."}, "[2]": {"biological_target": "T1, hGHSR1a^A204E (Homo sapiens, UniProt Q92847, A204E)", "protocol": "β-arr2 recruitment: In agonist and antagonist assays of NanoBiT-based β-arr2 recruitment, hGHSR1a^WT-Lg^BiT and ^SmBiT-β^WT were transiently co-transfected at a 1:1 ratio (250 μg each) into monolayers of HEK293/T cells on 6-well plates along with 2 μg of pcDNA3.1. For assays employing the Ala204Glu variant, hGHSR1a^A204E-Lg^BiT was transfected at 2×hGHSR1a^WT-Lg^BiT, as performed for iCa^2+ assays with hGHSR1a^A204E described above. For GHSR1a-β-arr2 saturation assays, a fixed amount of hGHSR1a^WT-Lg^BiT cDNA (250 μg) was transfected with 0, 62.5 (1:0.25), 125 (1:0.5), 250 (1:1), 500 (1:2), or 1000 (1:4) μg of ^SmBiTβ-arr^WT. The morning after transfection, media was exchanged and after 4-6 hours, cells were then plated on white 96-well, clear-bottomed assay plates at a density of 45,000 cells/well in opti-MEM supplemented with 2% FBS and antibiotic/antimycotic. The following morning, opti-MEM was removed and cells were incubated with 70-80 μL HBSS supplemented with 20 mM HEPES (pH 7.4) for 4 hours. Cells were then treated with 10 μL of coelenterazine H (5 μM final) for 15-20 minutes at room temperature. Cells were then stimulated with 10 μL of test compounds and 2 minutes later, luminescence was measured over 5 minutes, which encompassed the peak β-arr2 recruitment signal."}, "[3]": {"biological_target": "T1, hGHSR1a^A204E", "details": "C/R curve did not saturate", "protocol": "(§2) BRET-based Gαq Dissociation & β-arr2 Recruitment Assays. TRUPATH Gα dissociation: Gαq/i1/i2/OA/12/13/sS^RLuc8 and Gγ8^GFP2 or Gγ9^GFP2 were transiently co-transfected with human 3×HA-GHSR1a^WT and untagged Gβ3 at a 1:1:1:1 ratio (100 μg each) into monolayers of HEK293/T cells along with 1.6 μg pcDNA3.1. The next morning, media (DMEM supplemented with 10% FBS and antibiotic/antimycotic) was exchanged and after 4-6 hours, cells were plated on white 96-well, clear-bottomed assay plates at a density of 40,000-50,000 cells/well in opti-MEM supplemented with 2% FBS and antibiotic/antimycotic. The next morning, opti-MEM was removed and cells were incubated with 80 μL HBSS supplemented with 20 mM HEPES (pH 7.4) for 4 hours. Cells were then treated with 10 μL of the luminescent substrate, coelenterazine 400a (5 μM final), for 5 minutes at room temperature prior to the addition of 10 μL of test compound. Five minutes after ligand application, luminescence was measured by a Mithras 940 plate reader over 30 minutes and the maximal response was utilized for generating all C/R curves."}, "[4]": {"biological_target": "T2, mGHSR A199P (Mus musculus, UniProt Q99P50, A199P)", "T2 construct": "expressed in transfected cells", "T2 sequence (Q99P50 whole entry A199P)": "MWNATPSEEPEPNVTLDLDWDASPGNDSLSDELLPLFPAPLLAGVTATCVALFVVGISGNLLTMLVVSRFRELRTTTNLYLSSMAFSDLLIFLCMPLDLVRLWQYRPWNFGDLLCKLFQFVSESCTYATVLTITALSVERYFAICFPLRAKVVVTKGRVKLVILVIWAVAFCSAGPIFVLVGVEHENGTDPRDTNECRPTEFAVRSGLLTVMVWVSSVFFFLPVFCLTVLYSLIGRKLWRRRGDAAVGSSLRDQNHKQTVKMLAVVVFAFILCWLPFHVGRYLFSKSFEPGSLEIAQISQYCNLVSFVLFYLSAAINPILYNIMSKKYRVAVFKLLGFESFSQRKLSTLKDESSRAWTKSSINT", "assay": "Gαq dissociation and β-arr2 recruitment at humanized mouse receptor", "assay_type": "cell-based", "experimental": "To assess if N8279 signaling required receptor sites within and/or conformational states are conserved from the mouse receptor to the human receptor, the amino acid sequences for variations within the ECL2 were first determined (FIG. 17A). Mutations were made to human GHSR1a receptor (hGHSR) for W193R and P200A and to mouse GHSR1a receptor (mGHSR) for […]. N8279-stimulated Gαq dissociation (FIG. 17B) and β-arr2 recruitment (FIG. 17C) were evaluated for each hGHSR and mGHSR mutants in comparison to endogenous (WT) receptors."}, "[5]": {"biological_target": "GHSR1a (Homo sapiens, UniProt Q92847)", "sequence (Q92847 whole entry)": "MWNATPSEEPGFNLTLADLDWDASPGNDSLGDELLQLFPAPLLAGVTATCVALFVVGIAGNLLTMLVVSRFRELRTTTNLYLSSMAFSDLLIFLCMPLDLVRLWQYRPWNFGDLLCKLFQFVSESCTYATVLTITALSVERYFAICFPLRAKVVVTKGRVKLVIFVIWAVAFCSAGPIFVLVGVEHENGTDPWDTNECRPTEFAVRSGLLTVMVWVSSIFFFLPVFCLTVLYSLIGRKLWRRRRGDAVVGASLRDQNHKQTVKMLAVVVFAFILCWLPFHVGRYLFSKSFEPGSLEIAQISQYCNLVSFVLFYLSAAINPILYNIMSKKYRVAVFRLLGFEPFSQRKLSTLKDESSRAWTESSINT", "assay": "PRESTO-Tango GPCRome β-arr2 recruitment screen", "assay_type": "cell-based", "design": "expressed in transfected cells", "details": "N8279 1 μM", "experimental": "Hits were defined as >3-fold activation above baseline. […] The assay quality was assessed by plotting duplicate, independent trial averages (derived from 4 independent wells) for each receptor as a point (X,Y). The corresponding plot of points for an ideal assay were fit by a regression line with the slope=1."}, "[6]": {"biological_target": "T1, hGHSR1a^A204E", "assay": "iCa2+ at A204E variant", "assay_type": "cell-based", "design": "expressed in transfected cells; host or cells: HEK293/T, transient", "experimental": "(§1) For experiments with WT and Gt KO HEK293/S cells, […] of hGHSR1a^WT, 10 μg of miAEQ, and 2.5 μg of pcDNA3.1 was transiently transfected into 10 cm dishes and incubated overnight. […] Twenty-four hours later, experiments proceeded in accordance with the procedures described above. To control for any possible kinetic differences in genetically modified cell lines or GHSR1a variants, the average ligand-induced response over 10 seconds was calculated, then normalized by dividing the L-miAeq by the L-miAeq plus the Lysis-miAeq and normalized to the appropriate control/reference condition."}, "[7]": {"biological_target": "human GHSR1a^WT (Gαq) (Homo sapiens, UniProt Q92847)", "sequence (Q92847 whole entry)": "as above", "assay": "TRUPATH (BRET) Gαq dissociation", "protocol": "as §2"}, "[8]": {"biological_target": "T3, hGHSR1a^WT in Gαq/11 KO HEK293/S cells (Homo sapiens, UniProt Q92847)", "T3 construct": "expressed in transfected cells; SRF-RE reporter); HEK293/S Gαq/11 KO and parental WT (iCa2+)", "assay": "iCa2+ in Gαq/11 KO HEK293/S cells", "assay_type": "cell-based", "details": "10 μM ligand", "experimental": "as §1"}, "[9]": {"system": "C57BL/6J mice", "assay": "Cocaine-induced behavioral sensitization", "assay_type": "in vivo, mouse", "details": "N8279 5 mg/kg IP; cocaine 20 mg/kg", "experimental": "Next, cocaine-induced behavioral sensitization was assessed in male and female C57BL/6J mice following subchronic (8-day) administration of the vehicle or N8279 (5 mg/kg, IP) in the home-cage. Subsequently, mice were given the same treatments as described above, followed with an injection (IP) of vehicle or cocaine (20 mg/kg) in the open-field once per day for 5 days (FIG. 4D). A […] hiatus (washout) was imposed and behavioral sensitization was assessed the next day by giving (IP) vehicle or cocaine (challenge). […] By comparison, motor activities were stimulated acutely (day 1) to similar extents in the vehicle+cocaine and N8279+cocaine mice (FIG. 4E). […] Moreover, at challenge (day 11), locomotor activity was augmented relative to day 1 in the vehicle+cocaine mice, whereby no change in activity was evident in the N8279+cocaine mice.\nCocaine Sensitization. Male and female C57BL6/J mice (Jackson Labs, Bar Harbor, ME) were administered (IP) vehicle or N8279 (5 mg/kg) subchronically for 8 consecutive days (once/day) (FIG. 4D). Subsequently, mice were placed into the open-field (Accuscan Instruments, Columbus, OH) for 30 min, they were removed, injected (IP) with vehicle or N8279, returned to the open field for 30 min, then the mice were given (IP) vehicle or cocaine (20 mg/kg) and returned to the open-field for 120 minutes (FIG. 4D). […]"}, "[10]": {"biological_target": "T4, GHSR1a^N305A (Homo sapiens, UniProt Q92847, N305A)", "T4 construct": "expressed in transfected cells; host or cells: HEK293/T", "T4 sequence (Q92847 whole entry N305A)": "as the sequence (Q92847 whole entry) above, with N305A counted along it", "assay": "TRUPATH Gαq dissociation at N305A mutant", "assay_type": "cell-based"}, "[11]": {"biological_target": "T5, GHSR1a^R199A (Homo sapiens, UniProt Q92847, R199A)", "T5 construct": "expressed in transfected cells; host or cells: HEK293/T", "T5 sequence (Q92847 whole entry R199A)": "as the sequence (Q92847 whole entry) above, with R199A counted along it", "assay": "Gαq dissociation and iCa2+ at R199A mutant", "assay_type": "cell-based", "experimental": "as §1"}},
  "data": [
    {"smiles": "COc1ccc(C(=O)c2c(C(=O)NCCCN(C)C)oc3ccc(Cl)cc3c2=O)cc1OC", "note": "[Example N8279, 6-Chloro-3-(3,4-dimethoxybenzoyl)-N-(3-(dimethylamino)propyl)-4-oxo-4H-chromene-2-carboxamide]", "values": [
      {"measurement": "brain:plasma ratio", "setting": "[1]; IP", "result": "0.6-0.9"},
      {"measurement": "AUCextrap", "setting": "[1]; IP 5 mg/kg, brain", "result": 7.1, "unit": "%"},
      {"measurement": "AUC ratio (tissue/plasma)", "setting": "[1]; IP 5 mg/kg, brain/plasma", "result": 0.6},
      {"measurement": "AUCextrap", "setting": "[1]; IP 5 mg/kg, liver", "result": 0.1, "unit": "%"},
      {"measurement": "AUC ratio (tissue/plasma)", "setting": "[1]; IP 5 mg/kg, liver/plasma", "result": 49},
      {"measurement": "AUCextrap", "setting": "[1]; IP 5 mg/kg, plasma", "result": 0.6, "unit": "%"},
      {"measurement": "AUCextrap", "setting": "[1]; IV 1 mg/kg, brain", "result": 10, "unit": "%"},
      {"measurement": "AUC ratio (tissue/plasma)", "setting": "[1]; IV 1 mg/kg, brain/plasma", "result": 0.8},
      {"measurement": "AUCextrap", "setting": "[1]; IV 1 mg/kg, liver", "result": 0.2, "unit": "%"},
      {"measurement": "AUC ratio (tissue/plasma)", "setting": "[1]; IV 1 mg/kg, liver/plasma", "result": 40},
      {"measurement": "AUCextrap", "setting": "[1]; IV 1 mg/kg, plasma", "result": 2.4, "unit": "%"},
      {"measurement": "AUCextrap", "setting": "[1]; PO 5 mg/kg, brain", "result": 24, "unit": "%"},
      {"measurement": "AUC ratio (tissue/plasma)", "setting": "[1]; PO 5 mg/kg, brain/plasma", "result": 0.9},
      {"measurement": "AUCextrap", "setting": "[1]; PO 5 mg/kg, liver", "result": 0.1, "unit": "%"},
      {"measurement": "AUC ratio (tissue/plasma)", "setting": "[1]; PO 5 mg/kg, liver/plasma", "result": 77},
      {"measurement": "AUCextrap", "setting": "[1]; PO 5 mg/kg, plasma", "result": 11, "unit": "%"},
      {"measurement": "brain half-life (t1/2) after IP and PO administration", "setting": "[1]; brain, IP and PO 5 mg/kg", "result": "6.6 to 11", "unit": "h"},
      {"measurement": "bioavailability", "setting": "[1]; male, C57BL/6, mouse, in vivo, ip, 5 mg/kg", "result": 27, "unit": "%"},
      {"measurement": "AUC(0-t)", "setting": "[1]; male, C57BL/6, mouse, liver, iv, 1 mg/kg", "result": 57100, "unit": "ng·h/mL"},
      {"measurement": "Cmax", "setting": "[1]; read-out: peak concentration (Cmax) in brain, IP 5 mg/kg, brain", "result": 259, "unit": "nM"},
      {"measurement": "Emax", "setting": "[2]", "result": "~35", "unit": "%"},
      {"measurement": "Gαq dissociation potency reduction at GHSR1a^A204E vs WT", "setting": "[3]", "result": "> 20", "unit": "fold"},
      {"measurement": "signaling at humanized mGHSR in words", "setting": "[4]", "result": "rescues"},
      {"measurement": "activation above baseline at GHSR1a", "setting": "[5]", "result": 6, "unit": "fold"},
      {"measurement": "iCa2+ efficacy at GHSR1a^A204E in words", "setting": "[6]", "result": "full agonism was retained"},
      {"measurement": "iCa2+ potency reduction at GHSR1a^A204E vs WT", "setting": "[6]", "result": 6.5, "unit": "fold"},
      {"measurement": "BRET-Gαq potency, fold less potent than L585", "setting": "[7]", "result": 1.7, "unit": "fold"},
      {"measurement": "BRET-Gαq potency, fold less potent than ghrelin", "setting": "[7]", "result": 6.1, "unit": "fold"},
      {"measurement": "Gαq activation efficacy in words", "setting": "[7]; NanoBiT and BRET (TRUPATH) assays", "result": "full agonist"},
      {"measurement": "agonist-induced iCa2+ in Gαq/11 KO cells", "setting": "[8]", "result": "abolished"},
      {"measurement": "cocaine-induced behavioral sensitization in words", "setting": "[9]", "result": "delayed the appearance of sensitization across days and abrogated the expression of sensitization following washout"},
      {"measurement": "Gαq dissociation at GHSR1a^N305A in words", "setting": "[10]", "result": "reduced dramatically"},
      {"measurement": "potency at GHSR1a^R199A in words", "setting": "[11]", "result": "did not affect"}
    ]}
  ]
}
